Data set [1] can be described thus: Antiviral activity against Influenza A virus (A/Brisbane/10/2007(H3N2)) infected in MDCK cells. Type of data set: functional, cell-based.
The next data set concerns Influenza B virus. As to the kind of experiment: Antiviral activity against Influenza B virus (B/Florida/4/2006) in MDCK cells. Format: functional, cell-based. The conditions noted are these: B/Florida/4/2006, MDCK.
The nature of data set [2]: Antiviral activity against Influenza A virus (A/Viet Nam/1203/2004(H5N1)) infected in MDCK cells. Type of data set: functional, cell-based.
Data set [3] can be described thus: Cytotoxicity against Influenza B virus (B/Florida/4/2006) infected MDCK cells. Type of data set: cell-based, Canis lupus familiaris. The following applies: dog.
A short description of data set [4]: Antiviral activity against Influenza A virus (A/California/07/2009(H1N1)) infected in MDCK cells. Format: functional, cell-based.
Data set [5] is described as follows: Cytotoxicity against Influenza A virus (A/Brisbane/10/2007(H3N2)) infected MDCK cells. The following applies: dog. Type of data set: cell-based, Canis lupus familiaris.
Data set [6] is described as follows: Cytotoxicity against Influenza A virus (A/Viet Nam/1203/2004(H5N1)) infected MDCK cells. Type of data set: cell-based, Canis lupus familiaris. The conditions noted are these: dog.
A short description of data set [7]: Cytotoxicity against Influenza A virus (A/California/07/2009(H1N1)) infected MDCK cells. Type of data set: cell-based, Canis lupus familiaris. The conditions noted are these: dog.
Data set [8] is described as follows: Selectivity index, ratio of CC50 for Influenza A virus (A/California/07/2009(H1N1)) infected MDCK cells to EC50 for antiviral activity against Influenza A virus H1N1 (A/California/07/2009(H1N1)) infected in MDCK cells. The conditions noted are these: dog; read-out: Ratio CC50/EC50. Format: toxicity, cell-based.
The nature of data set [9]: Selectivity index, ratio of CC50 for Influenza A virus (A/Brisbane/10/2007(H3N2)) infected MDCK cells to EC50 for antiviral activity against Influenza A virus (A/Brisbane/10/2007(H3N2)). Type of data set: toxicity, cell-based. The following applies: dog; read-out: Ratio CC50/EC50.

For the compound `COC(=O)[C@]1(C)CCC[C@]2(C)[C@H]3C[C@H]4C(C(C)C)=C[C@]3(CC[C@H]21)[C@@H]1/C(=N/O)CC[C@H](O)[C@@H]14`, the EC50 in data set [1] was > 1.6 µM; in the data set on Influenza B virus, > 1.2 µM; in data set [2], > 1.2 µM; in [4] it was 3.2 µM. Also, the CC50 in data set [3] was 1.2 µM; in data set [5], 1.6 µM; in data set [6], 1.2 µM; in [7] it was 3.5 µM. In data set [8], the selectivity ratio stood at 1.1.

Consider `COC(=O)[C@]1(C)CCC[C@]2(C)[C@H]3C[C@H]4C(C(C)C)=C[C@]3(CC[C@H]21)[C@@H]1C(=O)CCC2(OCCO2)[C@@H]14`, for which the EC50 in data set [1] is > 26 µM; in the data set with Influenza B virus, > 27 µM; in [2] it was > 24 µM; in data set [4], 27 µM. Moreover, the CC50 in [3] came out at 27 µM; in [5], 26 µM; in data set [6], 24 µM; in data set [7], 34 µM. In addition, the selectivity ratio in [8] was determined as 1.3.

As for `COC(=O)[C@]1(C)CCC[C@]2(C)[C@H]3C[C@@H]4[C@H]5[C@@H]6CCC(=O)[C@H]5[C@@]3(CC[C@H]21)CC4(C(C)C)O6`, the EC50 (in data set [1]; in the data set on Influenza B virus; in data set [2]; in data set [4]) was > 100 µM each time. Also, the CC50 in data set [3], in data set [5], in data set [6] and in [7] was > 100 µM throughout.

Take `COC(=O)[C@H]1[C@@H](C(=O)OC)[C@@]23C=C(C(C)C)[C@@H]1C[C@@H]2[C@@]1(C)CCC[C@@](C)(C(=O)OC)[C@@H]1CC3`: the EC50 is > 7.6 µM in data set [1] and 3.8 µM in data set [4]. For the same compound, the CC50 in data set [5] is 7.6 µM; in [7] it was 9.4 µM. Moreover, the selectivity ratio in data set [8] was determined as 2.5.

`CC(C)C1=C[C@@]23CC[C@@H]4[C@](C)(CCC[C@@]4(C)C(=O)O)[C@H]2C[C@@H]1[C@H]1C(=O)C=CC(=O)[C@H]13`: the EC50 in data set [1] was > 27 µM; with Influenza B virus, > 20 µM; in [2], > 30 µM; in data set [4] it was 32 µM. Moreover, the CC50 was 20 µM in [3], 27 µM in data set [5], 30 µM in data set [6] and 33 µM in [7]. Also, in data set [8], the selectivity ratio came to 1.

As to `COC(=O)[C@]1(C)CCC[C@]2(C)[C@H]3C[C@H]4C(C(C)C)=C[C@]3(CC[C@H]21)[C@@H]1C(=O)C=CC(=O)[C@@H]14`, the EC50 was 3.2 µM in [1], > 2.9 µM in the data set with Influenza B virus, > 2.9 µM in data set [2] and > 5.5 µM in [4]. Further, the selectivity ratio in data set [9] is 1.2. For the same compound, the CC50 is 2.9 µM in [3], 3.9 µM in data set [5], 2.9 µM in data set [6] and 5.5 µM in data set [7].

As for `COC(=O)[C@]12C=CC(=O)[C@H]1[C@@]13C=C(C(C)C)[C@@H]2C[C@@H]1[C@@]1(C)CCC[C@@](C)(C(=O)OC)[C@@H]1CC3`, the half-maximal effective concentration (EC50) was 3.2 µM in data set [1], > 25 µM with Influenza B virus, > 13 µM in data set [2] and 3.1 µM in data set [4]. For the same compound, the selectivity ratio in [9] and in [8] was 1.2 each time. For the same compound, the CC50 in data set [3] was determined as 25 µM; in data set [5] it was 3.9 µM; in [6], 13 µM; in data set [7], 3.8 µM.

Consider `COC(=O)[C@]1(C)CCC[C@]2(C)[C@H]3C[C@H]4C(C(C)C)=C[C@]3(CC[C@H]21)[C@@H]1C(=O)CC[C@H](O)[C@@H]14`, for which the EC50 (in data set [1]; with Influenza B virus; in data set [2]; in [4]) was > 100 µM throughout. In addition, the CC50 in data set [3], in [5], in data set [6] and in [7] was > 100 µM each time.

`COC(=O)[C@]1(C)CCC[C@]2(C)[C@H]3C[C@H]4C(C(C)C)=C[C@]3(CC[C@H]21)[C@H]1[C@@H]4[C@@H](O)CC[C@@H]1O`: the EC50 in data set [1] was > 64 µM; in the data set on Influenza B virus, > 100 µM; in [2], > 100 µM; in data set [4] it was 48 µM. The CC50 in data set [3] was > 100 µM; in data set [5], 64 µM; in data set [6] it was > 100 µM; in data set [7] it was 93 µM. The selectivity ratio in data set [8] was found to be 1.9.

Turning to `CC(C)C1=C[C@@]23CC[C@H]4[C@](C)(CO)CCC[C@]4(C)[C@H]2C[C@@H]1[C@@H]1[C@H]3[C@@H](O)CC[C@@H]1O`, the EC50 in data set [1] was 32 µM; with Influenza B virus, > 31 µM; in data set [2], > 29 µM; in data set [4] it was > 11 µM. Further, the selectivity ratio in [9] turned out to be 1. Further, the CC50 amounted to 31 µM in data set [3], 33 µM in data set [5], 29 µM in data set [6] and 11 µM in data set [7].

Take `COC(=O)[C@]1(C)CCC[C@]2(C)[C@H]3C[C@H]4C(C(C)C)=C[C@]3(CC[C@H]21)[C@@H]1C(=O)CC[C@H](OC(C)=O)[C@@H]14`: the EC50 (in data set [1]; in the data set on Influenza B virus; in [2]; in data set [4]) was > 100 µM throughout. Besides, the CC50 in data set [3], in data set [5], in data set [6] and in data set [7] was > 100 µM each time.

Take `COC(=O)[C@]1(C)CCC[C@]2(C)[C@H]3C[C@H]4C(C(C)C)=C[C@]3(CC[C@H]21)[C@@H]1C(=O)CC[C@H](OCCC#N)[C@@H]14`: the EC50 is 34 µM in [1], > 52 µM in the data set with Influenza B virus, > 31 µM in data set [2] and > 100 µM in data set [4]. The selectivity ratio in data set [9] was determined as 2. For the same compound, the CC50 in data set [3] was 52 µM; in data set [5] it was 68 µM; in data set [6] it was 31 µM; in data set [7] it was > 100 µM.

On to `COC(=O)[C@]1(C)CCC[C@]2(C)[C@H]3C[C@H]4C(C(C)C)=C[C@]3(CC[C@H]21)[C@H]1[C@@H]4[C@@H](OC(=O)c2cccnc2)CC[C@@H]1OC(=O)c1cccnc1`, for which the EC50 in [1] is > 4.9 µM; in the data set with Influenza B virus it was > 11 µM; in data set [2] it was > 8.5 µM; in data set [4] it was 29 µM. Further, the CC50 in data set [3] is 11 µM; in [5], 4.9 µM; in [6] it was 8.5 µM; in data set [7] it was 32 µM. The selectivity ratio in [8] was 1.1.

In the case of `COC(=O)[C@]1(C)CCC[C@]2(C)[C@H]3C[C@H]4C(C(C)C)=C[C@]3(CC[C@H]21)[C@H]1[C@@H]4[C@@H](OC(=O)/C=C/c2ccccc2)CC[C@@H]1OC(=O)C=Cc1ccccc1`, the EC50 in data set [1] is > 4 µM; in the data set with Influenza B virus, > 9.3 µM; in data set [2] it was > 8.2 µM; in data set [4], > 17 µM. In addition, the CC50 in data set [3] is 9.3 µM; in data set [5], 4 µM; in data set [6] it was 8.2 µM; in [7], 17 µM.

Regarding `CC(C)C1=C[C@@]23CC[C@H]4[C@](C)(COC(=O)/C=C/c5ccccc5)CCC[C@]4(C)[C@H]2C[C@@H]1[C@@H]1[C@H]3[C@@H](OC(=O)/C=C/c2ccccc2)CC[C@@H]1OC(=O)/C=C/c1ccccc1`, the EC50 in data set [1] is 31 µM; in the data set with Influenza B virus, > 46 µM; in data set [2], > 100 µM; in data set [4], 31 µM. The selectivity ratio in [9] and in data set [8] was 1.1 throughout. The CC50 in data set [3] was 46 µM; in [5], 33 µM; in data set [6], > 100 µM; in [7], 35 µM.

In the case of `COC(=O)[C@]1(C)CCC[C@]2(C)[C@H]3C[C@H]4C(C(C)C)=C[C@]3(CC[C@H]21)[C@@H]1/C(=N/O)CCC(=O)[C@@H]14`, the EC50 in data set [1] is > 13 µM; in the data set with Influenza B virus, > 2.4 µM; in [2], > 1.7 µM; in [4] it was 31 µM. In addition, the CC50 was determined as 2.4 µM in [3], 13 µM in [5], 1.7 µM in [6] and 31 µM in data set [7]. The selectivity ratio in data set [8] is 1.

For the compound `COC(=O)[C@]1(C)CCC[C@]2(C)[C@H]3C[C@@H]4[C@@H]5[C@H]6[C@H](OC(C)=O)CC[C@@H]5OC4(C(C)C)C[C@]63CC[C@H]21`, the EC50 was > 5 µM in data set [1], > 10 µM in the data set with Influenza B virus, > 12 µM in data set [2] and 3.2 µM in data set [4]. The CC50 worked out at 10 µM in [3], 5 µM in [5], 12 µM in data set [6] and 3.5 µM in [7]. Also, in data set [8], the selectivity ratio amounted to 1.1.

Regarding `COC(=O)[C@]1(C)CCC[C@]2(C)[C@H]3C[C@H]4C(C(C)C)=C[C@]3(CC[C@H]21)[C@@H]1/C(=N/OC(C)=O)CC[C@H](OC(C)=O)[C@@H]14`, the EC50 in data set [1] was 3.1 µM; with Influenza B virus it was > 2.8 µM; in data set [2] it was > 2.5 µM; in data set [4], > 4.8 µM. Also, the selectivity ratio in data set [9] was 1.1. Further, the CC50 was found to be 2.8 µM in data set [3], 3.3 µM in [5], 2.5 µM in data set [6] and 4.8 µM in data set [7].

As usually defined, the EC50 is the concentration needed to bring the measured effect to its halfway point. In general, CC50 refers to the concentration giving 50% cytotoxicity. Low readings indicate greater toxicity to the cells, high ones lower toxicity to the cells.

(Values after ChEMBL document CHEMBL3616462, “Synthesis and antiviral activity of maleopimaric and quinopimaric acids' derivatives” (Bioorg Med Chem, 2015).)
